Results taken from patent US6753146B1, “System and method for evaluating agents which prevent oxidative damage” (priority 1999, dated 2004).

System: human elastin promoter
Assay: human elastin promoter activity by CAT assay in transgenic mouse fibroblast cultures exposed to hypoxanthine/xanthine oxidase
Type: cell-based
Conditions: 10,000 U/ml catalase added just prior to hypoxanthine and xanthine oxidase exposure
Excerpt: Fibroblasts derived from the skin of a homozygous line of transgenic mice expressing the 5.2-kb human elastin promoter, linked to a CAT reporter gene which enables measurement of elastin promoter activation, as previously described (Bernstein et al. J Invest Dermatol 105, 269-273, 1995; and Bernstein et al. Photochem Photobiol 64:369-74, 1996) were utilized. Although phenotypically normal, these mice express the human elastin promoter when assayed for CAT activity (Hsu-Wong et al. J. Biol. Chem. 269: 18072-18075, 1994; Bernstein et al. J Invest Dermatol 105, 269-273, 1995; and Bernstein et al. Photochem Photobiol 64:369-74, 1996). […]
DMEM with 10% FCS was removed, cells were rinsed in phosphate buffered saline (PBS), and DMEM was replaced without the addition of FCS. […] The optimum time span for incubation of cells with hypoxanthine/xanthine oxidase was determined by exposing cells to hypoxanthine/xanthine oxidase for 15, 30, 60, 90 and 120 minutes and determining CAT activity as outlined in Example 3. […]
To measure the expression of the human elastin promoter/CAT reporter gene construct in the skin of transgenic mice and in fibroblast cultures established from these animals, CAT activity was determined. […]

- effect on the hypoxanthine/xanthine oxidase-induced increase in elastin promoter activity: fully eliminated this increase
- human elastin promoter activity (CAT assay), fold of untreated controls (mean±sem) (90 minutes): 1.0±0.1 fold
Substance: catalase
